According to patent US12364702B2, “Highly active sting protein agonist compound” (ADLAI NORTYE BIOPHARMA CO., LTD., priority 2018, dated 2025):

Biological target: STING (Homo sapiens, UniProt Q86WV6)
Experiment: IFN-β secretion from THP1 by STING activation (hIFNβ ELISA)
Assay type: cell-based
Conditions: THP1 cells, 24 h incubation, IFN-β in supernatant, top dose set according to solubility; for EC50: read-out: hIFNβ ELISA (EC50)
Method: In this assay, activation of STING by compounds was evaluated by detecting their ability to stimulate the secretion of IFN-β (interferon-beta) from THP1. THP1 was purchased from National Collection of Authenticated Cell Cultures (Cat #TCHu 57). The top dose of compounds was setted according to their solubility. First, Compounds were 3 times diluted with medium, 8-dose points in total. The final DMSO concentration was 0.2%. THP1 during the logarithmic phase was resuspended to 2×10^6 cells/ml in assay medium. The THP1-cell suspension was dispensed into a 96-well U bottom plate containing 50 ul of compound diluted in medium. After 24 h incubation at 37° C., 5% CO2, the supernatant was collected. The concentration of IFN-β in the supernatant was measured using a human IFNβ ELISA KIT (R&D, DY814-05). The data was fitted with GraphPad Prism or XLfit to calculate EC50 values.

STING, sequence (Q86WV6 whole entry): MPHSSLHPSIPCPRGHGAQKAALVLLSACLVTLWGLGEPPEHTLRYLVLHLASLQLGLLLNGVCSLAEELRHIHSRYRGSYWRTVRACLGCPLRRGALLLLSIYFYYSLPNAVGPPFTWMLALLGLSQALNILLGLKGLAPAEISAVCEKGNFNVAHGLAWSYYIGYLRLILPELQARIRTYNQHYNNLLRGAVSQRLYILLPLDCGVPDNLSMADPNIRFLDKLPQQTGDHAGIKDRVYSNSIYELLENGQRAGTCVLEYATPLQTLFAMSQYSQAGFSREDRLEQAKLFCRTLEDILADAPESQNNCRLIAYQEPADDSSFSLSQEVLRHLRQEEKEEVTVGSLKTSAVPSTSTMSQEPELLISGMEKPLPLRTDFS

| EC50 [µM] | hIFNβ ELISA (EC50, μM) | Structure (SMILES) |
| --- | --- | --- |
| > 4.3 | – | CCn1nc(C)c2c1C(=O)Nc1nc3cc(C(N)=O)cc4c3n1[C@@H](CCCn1c(nc3cc(C(N)=O)cc(OCCCOC)c31)NC(=O)c1cc(C)nn1CCCCC2)CO4 [Example 58, (S)-7-Ethyl-24-(3-methoxypropoxy)-9,16-dimethyl-6,18-dioxo-5,6,7,10,11,12,13,14,18,19,26,27,27a,28-tetradecahydro-25H-29-oxa-4,4a1,5,7,8,14a,15,19,20,24b-decaaza-dicyclopenta[11, 12:18,19]indeno[1′,2′:7,8]cyclohenicosa[1,2,3-bc]acenaphthylene-2,22-dicarboxamide] |
| > 5.6 | – | CCn1nc(C)c2c1C(=O)Nc1nc3cc(C(N)=O)cc(OCCCOC)c3n1CCC[C@H]1COc3cc(C(N)=O)cc4nc(n1c34)NC(=O)c1cc(C)nn1CCCCC2 [Example 59, (S)-17-ethyl-24-(3-methoxypropoxy)-8,15-dimethyl-6,18-dioxo-5,6,10,11,12,13,14,17, 18, 19, 26, 27, 27a,28-tetradecahydro-25H-29-oxa-4,4a1,5,9,9a,16, 17, 19, 20, 24b-decaazadicyclopenta[11, 12:18,19]indeno[1′,2′:7,8]cyclohenicosa[1,2,3-bc]acenaphthylene-2,22-dicarboxamide] |
| 11.7 | – | CCn1nc(C)cc1C(=O)Nc1nc2cc(C(N)=O)cc(OCCCN(C)C(=O)CN(C)C)c2n1CCC[C@H]1COc2cc(C(N)=O)cc3nc(NC(=O)c4cc(C)nn4CC)n1c23 [Example 28, (S)-3-(3-(5-carbamoyl-7-(3-(2-(dimethylamino)-N-methylacetamido)propoxy)-2-(1-ethyl-3-methyl-1H-pyrazole-5-carboxamido)-1H-benzo[d]imidazol-1-yl)propyl)-2-(1-ethyl-3-methyl-1H-pyrazole-5-carboxamido)-3,4-dihydro-5-oxa-1,2a-diazaacenaphthylene-7-carboxamide] |
| – | inactive | CCn1nc(C)cc1C(=O)Nc1nc2cc(C(N)=O)cc(OCCCOC)c2n1CCC[C@H]1COc2cc(-c3nn[nH]n3)cc3nc(NC(=O)c4cc(C)nn4CC)n1c23 [Example 26, (S)-2-(1-ethyl-3-methyl-1H-pyrazole-5-carboxamido)-1-(3-(2-(1-ethyl-3-methyl-1H-pyrazole-5-carboxamido)-7-(2H-tetrazol-5-yl)-3,4-dihydro-5-oxa-1,2a-diazaacenaphthylen-3-yl)propyl)-7-(3-methoxypropoxy)-1H-benzo[d]imidazole-5-carboxamide] |
